Reference: US11590117B2, “Treatment of a hematologic malignancy with 2-(4-chlorophenyl)-n-((2-(2,6-dioxopiperidin-3-yl)-1-oxoisoindolin-5-yl)methyl)-2,2-difluoroacetamide” (priority 2016, dated 2023)
Like-named read-outs stand apart in the source and are kept apart here.

Experiments:
Test in all cases: CellTiter-Glo (CTG) cell proliferation assay, 72 hours
Assay type in all cases: cell-based, human
HL-60 = system: HL-60
Description: (§1) Preparation of Solutions of Test Article: Compounds were plated into black 384-well plates (Corning Inc.) to a final DMSO volume of 0.1% assuming a maximal volume of 50 μL. A 10-point dose response starting at 10 μM with a 1:3 dilution was printed in duplicate by acoustic dispense using the EDC ATS-100 platform.
(§2) Cell Proliferation Assays: The effect of Compound 1 on the proliferation/viability of the hematological cell lines (Table 1 Table, Table 2 and Table 3), THLE-2, or PBMCs was assessed after 72 hours incubation using CTG (Promega), according to manufacturer's instructions. Hematological cell lines were dispensed into compound plates by a Multidrop™ Combi Reagent Dispenser (Thermo Scientific, Waltham, Mass.) at a concentration of 0.1 to 0.3×10^6 cells per mL in a 50 μL total volume. THLE-2 cells were seeded out at 1000 cells per well in 50 μL volume and incubated for 72 hours. At 72 hours, 25 μL per well of CTG was dispensed by a Multidrop™ Combi Reagent Dispenser and adenosine triphosphate (ATP) release by viable cells was measured as relative luminescence units after 30 minutes using the Envision platform.
(§3) Proliferation was assessed using the CellTitre-Glo® assay. Results for cultures incubated with Compound 1 were normalized to results for control cultures for each cell line. The IC50 for inhibition of cell growth by Compound 1 was determined for each cell line using ActivityBase software.
(§4) Cultures of 11 different AML cell lines were incubated 72 hours with Compound 1 at concentrations of 0.5 nM to 10 μM. Proliferation was assessed using the CellTitre-Glo® assay. Results for cultures incubated with Compound 1 were normalized to results for control cultures for each cell line. Inhibition of cell growth was also determined in THLE-2 cells at Compound 1 concentrations of 0.1 nM to 100 μM and in PBMCs at Compound 1 concentrations of 0.5 nM to […]. The Compound 1 therapeutic window was calculated using area under the curve (AUC; Activity Area [Barretina et al, Nature (2012) 483603-607] measurements (in arbitrary units) as determined using GraphPad Prism software for plots of cell proliferation vs concentration and dividing the AUC for the immortalized (but nontumorigenic) human THLE-2 hepatocyte cell line or PBMCs by the AUC for the AML cell line.

HNT-34 = conditions: for IC50: Homo sapiens
Description: as §1, §2, §3, §4

KG-1a = system: KG-1a
Description: as §1, §2, §3, §4

KG-1 = system: KG-1
Description: as §1, §2, §3, §4

Kasumi-1 = system: Kasumi-1
Description: as §1, §2, §3, §4

MV-4-11 = system: MV-4-11
Description: as §1, §2, §3, §4

OCI-AML2 = system: OCI-AML2
Description: as §1, §2, §3, §4

[1] = HL-60, AUC PBMCs divided by AUC AML cell line
[2] = HL-60, AUC THLE-2 divided by AUC AML cell line
[3] = HNT-34, AUC PBMCs divided by AUC AML cell line
[4] = HNT-34, AUC THLE-2 divided by AUC AML cell line
[5] = AUC PBMCs divided by AUC AML cell line
[6] = AUC THLE-2 divided by AUC AML cell line
[7] = KG-1, AUC PBMCs divided by AUC AML cell line
[8] = KG-1, AUC THLE-2 divided by AUC AML cell line
[9] = Kasumi-1, AUC PBMCs divided by AUC AML cell line
[10] = Kasumi-1, AUC THLE-2 divided by AUC AML cell line
[11] = MV-4-11, AUC PBMCs divided by AUC AML cell line
[12] = MV-4-11, AUC THLE-2 divided by AUC AML cell line
[13] = OCI-AML2, AUC PBMCs divided by AUC AML cell line
[14] = OCI-AML2, AUC THLE-2 divided by AUC AML cell line

Q: What does the source list for `O=C1CCC(N2Cc3cc(CNC(=O)C(F)(F)c4ccc(Cl)cc4)ccc3C2=O)C(=O)N1` (stereo not shown) [Compound 1, 2-(4-chlorophenyl)-N-((2-(2,6-dioxopiperidin-3-yl)-1-oxoisoindolin-5-yl)methyl)-2,2-difluoroacetamide]?
A: Therapeutic Window Method 1 As Compared with PBMCs (HL-60; [1]): 11; Therapeutic Window Method 2 As Compared with PBMCs (HL-60; [1]): 6.1; Therapeutic Window Method 1 As Compared with THLE-2 Cells (HL-60; [2]): 17; Therapeutic Window Method 2 As Compared with THLE-2 Cells (HL-60; [2]): 23.2; AUC (HL-60; HL-60, Activity Area of proliferation vs concentration, 72 hours, 0.5 nM to 10 μM): 23.7 arbitrary units; IC50 (HL-60; Homo sapiens, HL-60, 72 h, read-out: Proliferation IC50 (mean ± SD)): 20 ± 10 nM; Therapeutic Window Method 1 As Compared with PBMCs (HNT-34; [3]): 36; Therapeutic Window Method 2 As Compared with PBMCs (HNT-34; [3]): 21; Therapeutic Window Method 1 As Compared with THLE-2 Cells (HNT-34; [4]): 57; Therapeutic Window Method 2 As Compared with THLE-2 Cells (HNT-34; [4]): 79.5; AUC (HNT-34; HNT-34, Activity Area of proliferation vs concentration, 72 hours, 0.5 nM to 10 μM): 6.9 arbitrary units; IC50 (HNT-34; HNT-34, 72 h, read-out: Proliferation IC50 (mean ± SD)): 3 ± 1 nM; IC50 (HNT-34; HNT-34 as sensitive positive control cell line in PBMC comparison, 72 hours, read-out: CTG IC50): 2 nM; Therapeutic Window Method 1 As Compared with PBMCs (KG-1a; [5]): 2.6; Therapeutic Window Method 2 As Compared with PBMCs (KG-1a; [5]): 1.5; Therapeutic Window Method 1 As Compared with THLE-2 Cells (KG-1a; [6]): 4.1; Therapeutic Window Method 2 As Compared with THLE-2 Cells (KG-1a; [6]): 5.7; AUC (KG-1a; Activity Area of proliferation vs concentration, 72 hours, 0.5 nM to 10 μM): 96.9 arbitrary units; IC50 (KG-1a; Homo sapiens, 72 h, read-out: Proliferation IC50 (mean ± SD)): 21 ± 10 nM; IC50 (KG-1; Homo sapiens, KG-1, 72 h, read-out: Proliferation IC50 (mean ± SD)): 15 ± 6 nM; Therapeutic Window Method 1 As Compared with PBMCs (KG-1; [7]): 3.8; Therapeutic Window Method 2 As Compared with PBMCs (KG-1; [7]): 2.2; Therapeutic Window Method 1 As Compared with THLE-2 Cells (KG-1; [8]): 6.0; Therapeutic Window Method 2 As Compared with THLE-2 Cells (KG-1; [8]): 8.3; AUC (KG-1; KG-1, Activity Area of proliferation vs concentration, 72 hours, 0.5 nM to 10 μM): 65.8 arbitrary units; IC50 (Kasumi-1; Homo sapiens, Kasumi 1, 72 h, read-out: Proliferation IC50 (mean ± SD)): 21 ± 13 nM; Therapeutic Window Method 1 As Compared with PBMCs (Kasumi-1; [9]): 6.6; Therapeutic Window Method 2 As Compared with PBMCs (Kasumi-1; [9]): 3.8; Therapeutic Window Method 1 As Compared with THLE-2 Cells (Kasumi-1; [10]): 10; Therapeutic Window Method 2 As Compared with THLE-2 Cells (Kasumi-1; [10]): 14.5; AUC (Kasumi-1; Kasumi-1, Activity Area of proliferation vs concentration, 72 hours, 0.5 nM to 10 μM): 37.9 arbitrary units; IC50 (MV-4-11; Homo sapiens, MV4-11, 72 h, read-out: Proliferation IC50 (mean ± SD)): 29 ± 10 nM; Therapeutic Window Method 1 As Compared with PBMCs (MV-4-11; [11]): 12; Therapeutic Window Method 2 As Compared with PBMCs (MV-4-11; [11]): 7.1; Therapeutic Window Method 1 As Compared with THLE-2 Cells (MV-4-11; [12]): 19; Therapeutic Window Method 2 As Compared with THLE-2 Cells (MV-4-11; [12]): 26.8; AUC (MV-4-11; MV-4-11, Activity Area of proliferation vs concentration, 72 hours, 0.5 nM to 10 μM): 20.5 arbitrary units; IC50 (OCI-AML2; Homo sapiens, OCI-AML2, 72 h, read-out: Proliferation IC50 (mean ± SD)): 57 ± 21 nM; Therapeutic Window Method 1 As Compared with PBMCs (OCI-AML2; [13]): 14; Therapeutic Window Method 2 As Compared with PBMCs (OCI-AML2; [13]): 8.1; Therapeutic Window Method 1 As Compared with THLE-2 Cells (OCI-AML2; [14]): 22; Therapeutic Window Method 2 As Compared with THLE-2 Cells (OCI-AML2; [14]): 30.7; AUC (OCI-AML2; OCI-AML2, Activity Area of proliferation vs concentration, 72 hours, 0.5 nM to 10 μM): 17.9 arbitrary units
